Experimental data taken from patent US20240287081A1, “PERFLUOROALKANE SUBSTITUTED PYRAZOLO[3,4-D]PYRIMIDIN AND PYRROLO[2,3-D]PYRIMIDIN COMPOUNDS AND USES THEREOF” (ICAHN SCHOOL OF MEDICINE AT MOUNT SINAI, priority 2021, published 2024).

Assays:
[1] = test system: ptc>dRet^M955T flies; assay: Fly rescue assay (Drosophila MTC model ptc>dRet^M955T); assay type: in vivo; settings: compound in fly food; for rescue (percent viability of adult flies, adults/pupae×100): 13 d at 25° C.
Protocol: Kinase-mutated fly stocks were obtained from Bloomington Drosophila Stock Center (BDSC; Bloomington, IN). The active mutant form of Drosophila Ret (dRet^955T) carries an M955T mutation corresponding to the M918T mutation commonly reported for multiple endocrine neoplasia (MEN) type 2B patients12,14,16,34. The ptc-gal4, UAS-GFP;UAS-dRet^M955T/SM5tub-gal80-TM6B transgenic flies were prepared according to standard protocols and crossed with non-transgenic w-flies (BDSC) to generate ptc-gal4, UAS-GFP; UAS-dRet^M955T(ptc>dRet^M955T) flies for chemical screening.
All drugs were synthesized in-house. All compounds were dissolved in DMSO (Sigma-Aldrich; St. Louis, MO) and mixed with semi-defined fly medium (BDSC) to make drug food (0.1% final DMSO concentration). For drug screening, ptc>dRet^M955T embryos were raised until adulthood on drug food for 13 d at 25° C. The number of empty pupal cases (i.e., adults) ? that of total pupal cases (P) to determine % viability. Fly randomization was used throughout the assays.
In this model, compounds are assessed based on their ability to suppress oncogenic Ret^M955T-induced tumors, which can be quantified as ‘rescue’ from lethality. […] The baseline viability of ptc>Ret^1955T flies was calibrated to zero, which creates a high bar for rescue but also reduces false-positive hits. Hundreds of flies are tested per condition (typical n values are […] administered through fly food.

[2] = test system: RET (WT and M918T); assay: NanoBRET cell based target engagement assay; settings: RET-Nluc in HEK 293T cells; for cellular IC50 against RET, ranking in words: pyrazolo- and pyrrolopyrimidine series
Protocol: Assays were completed in duplicate. […] FIG. 8D is a graph of the cell-based target engagement for the indicated compounds against wild-type and M918T RET. IC50 values were determined based on 8-point titration curves of free ligand. Competition assays were completed in technical triplicate against full-length human RET-Nluc expressed in 293T cells, complexed with an active-site fluorescent tracer.
In this assay, a bioluminescence resonance energy transfer (BRET) signal is generated between nanoLuciferase tagged RET (expressed in HEK 293T cells) and an active-site based fluorescent tracer. […] Using this assay, in vivo binding was determined for a series of compounds against mutant (M918T) and wild-type RET (FIG. 8D).

| Compound | rescue (percent viability of adult flies, adults/pupae×100) ([1]; baseline viability 0%) | cellular IC50 wild-type RET versus M918T mutant, in words [2] | further results |
| --- | --- | --- | --- |
| CC(C)n1nc(-c2ccc(NC(=O)Nc3cccc(C(F)(F)C(F)(F)C(F)(F)C(F)(F)F)c3)cc2)c2c(N)ncnc21 [APS-7-46-2, 1-(4-(4-Amino-1-isopropyl-1H-pyrazolo[3,4-d]pyrimidin-3-yl)phenyl)-3-(3-(perfluorobutyl)phenyl)urea] | over 80% | – | – |
| COc1ccc(CN2C3CC2CN(c2ccc(-c4cc(OCC(C)(C)O)cn5ncc(C#N)c45)cn2)C3)cn1 [Loxo292, reference compound] | – | slightly lower IC50 values towards wild-type RET over the M918T mutant | – |
| CC(C)n1cc(-c2ccc(NC(=O)Nc3ccc(C(F)(C(F)(F)F)C(F)(F)C(F)(F)F)cc3)cc2)c2c(N)ncnc21 (centres unmarked) [APS-8-82-2, 1-(4-(4-Amino-7-isopropyl-7H-pyrrolo[2,3-d]pyrimidin-5-yl)phenyl)-3-(4-(perfluorobutan-2-yl)phenyl)urea 2,2,2-trifluoroacetate] | – | – | rescue activity in the fly model, in words [1]: exceptional in vivo activity; rescue (percent viability of adult flies, adults/pupae×100) ([1]; baseline viability 0%, 2,2,2-trifluoroacetate): 100%; cellular IC50 against RET, ranking in words [2]: highest IC50 values |
| CNC(=O)c1cc(Oc2ccc(NC(=O)Nc3ccc(Cl)c(C(F)(F)F)c3)c(F)c2)ccn1 [regorafenib, reference compound] | – | slightly lower IC50 values towards wild-type RET over the M918T mutant | – |
| CC(C)n1nc(-c2ccc(NC(=O)Nc3cc(C(F)(F)C(F)(F)F)ccc3F)cc2)c2c(N)ncnc21 [APS-5-86-2, 1-(4-(4-Amino-1-isopropyl-1H-pyrazolo[3,4-d]pyrimidin-3-yl)phenyl)-3-(2-fluoro-5-(perfluoroethyl)phenyl)urea] | 92% | not observed | – |
| CC(C)n1nc(-c2ccc(NC(=O)Nc3cccc(C(F)(C(F)(F)F)C(F)(F)C(F)(F)F)c3)cc2)c2c(N)ncnc21 (centres unmarked) [APS-8-56-3, 1-(4-(4-Amino-1-isopropyl-1H-pyrazolo[3,4-d]pyrimidin-3-yl)phenyl)-3-(3-(perfluorobutan-2-yl)phenyl)urea 2,2,2-trifluoroacetate] | – | – | cellular IC50 against RET, ranking in words [2]: highest IC50 values |
| CO[C@]1(C(=O)N[C@@H](C)c2ccc(-n3cc(F)cn3)nc2)CC[C@H](c2nc(C)cc(Nc3cc(C)[nH]n3)n2)CC1 [Blu667, reference compound] | – | slightly lower IC50 values towards wild-type RET over the M918T mutant | – |
| CNC(=O)c1cc(Oc2ccc(NC(=O)Nc3ccc(C(C)(F)C(C)(C)C)cc3)cc2)ccn1 (centres unmarked) [compound 44] | 55% | – | – |
